Experimental data published in PMC5428881 (Chemical communications (Cambridge, England), 2011).

Tested on: HeLa cells
Experiment: Cell permeability by fluorescence activated cell sorting
Format: cell-based
Settings: FACS, 10 μM N-terminally fluorescein-conjugated peptide, 2 versus 1

increase in mean fluorescence (cell permeability): 2.5 fold
Sequence: LTFCRYWARLCS [compound 2]
